Test results reported in US4680396A, “Bis(aminoalkyl)piperazine derivatives and their use as metal ion control agents” (The Dow Chemical Company, priority 1984, dated 1987).
Entries after “also recorded” stand apart in the source; their conditions may differ. Structures can show the parent of a compound that is named as a salt.

How the values were obtained:
[1] = Calcium Scale Inhibitor Test (NACE test method TM-03-74), calcium carbonate scale; details: for Percent Inhibition at 24 Hrs. / Percent Inhibition at 48 Hrs. / Percent Inhibition at 72 Hrs.: 10 ppm based on active acid content; for threshold activity (in words): threshold agent, less than stoichiometric amounts
Protocol: To show the utility of the above compounds as scale inhibitors, the following test was run.
Calcium Scale Inhibitor Test
The compounds were evaluated as scale inhibitors for calcium carbonate scale according to National Association of Corrosion Engineers (NACE) test method TM-03-74. Note the dramatic improvement of the phosphonic acids prepared from the bis(aminoethyl)piperazine and bis(aminopropyl)piperazine compounds of this invention when compared to aminoethylpiperazinetrimethylenephosphonic acid taught in the U.S. patent literature as a good scale inhibition compound.
*ppm based on active acid content

[2] = Titration with standard copper solution in the presence of chrome azurol-S indicator (sequestering/chelating); details: titrated with standard copper solution
From the text: The compounds of this invention can also function as sequestering/chelating agents. For example, compounds were titrated with standard copper solution in the presence of chrome azurol-S indicator. The compound of Example 9 complexed about one mole of copper per mole of ligand. […] The compound of Example 3 was titrated and found to complex approximately three moles of copper per mole of ligand. The compound can function as either a threshold compound or a chelating agent.

O=P(O)(O)CNCCCN1CCN(CCCN(CP(=O)(O)O)CP(=O)(O)O)CC1 [Example 2]
Percent Inhibition at 24 Hrs. [1]: 99%
Percent Inhibition at 48 Hrs. [1]: 93%
Percent Inhibition at 72 Hrs. [1]: 91%

O=P(O)(O)CN(CCCN1CCN(CCCN(CP(=O)(O)O)CP(=O)(O)O)CC1)CP(=O)(O)O [Example 1, completely phosphonomethylated bis(aminopropyl)piperazine]
Percent Inhibition at 24 Hrs. [1]: 99%
Percent Inhibition at 48 Hrs. [1]: 93%
Percent Inhibition at 72 Hrs. [1]: 90%

O=C(O)CN(CCN1CCN(CCN(CP(=O)(O)O)CP(=O)(O)O)CC1)CP(=O)(O)O [Example 5]
Percent Inhibition at 24 Hrs. [1]: 96%
Percent Inhibition at 48 Hrs. [1]: 89%
Percent Inhibition at 72 Hrs. [1]: 83%

O=P(O)(O)CN1CCN(CCN(CP(=O)(O)O)CP(=O)(O)O)CC1 [Example A, aminoethylpiperazine trimethylenephosphonic acid, reference compound]
Percent Inhibition at 24 Hrs. [1]: 77%
Percent Inhibition at 48 Hrs. [1]: 65%
Percent Inhibition at 72 Hrs. [1]: 60%
threshold activity (in words) [1]: not have very good threshold activity

O=P(O)(O)CNCCN1CCN(CCN(CP(=O)(O)O)CP(=O)(O)O)CC1 [Example 4]
Percent Inhibition at 24 Hrs. [1]: 97%
Percent Inhibition at 48 Hrs. [1]: 87%
Percent Inhibition at 72 Hrs. [1]: 79%

O=C(O)CN(CCN1CCN(CCN(CC(=O)O)CC(=O)O)CC1)CC(=O)O [Example 9, tetrasodium salt of bis(aminoethyl)piperazine-tetraacetic acid]
copper complexed per mole of ligand [2]: about one
Percent Inhibition at 24 Hrs. [1]: 55%
Percent Inhibition at 48 Hrs. [1]: 51%
Percent Inhibition at 72 Hrs. [1]: 50%
threshold activity (in words) [1]: not a good threshold compound; also recorded: ineffective as a threshold compound

O=P(O)(O)CN(CCCN1CCN(CCCN(CP(=O)(O)O)CP(=O)(O)O)CC1)CC(O)CS(=O)(=O)O (stereo not shown) [Example 7]
Percent Inhibition at 24 Hrs. [1]: 92%
Percent Inhibition at 48 Hrs. [1]: 77%
Percent Inhibition at 72 Hrs. [1]: 79%

CC(O)CN(CCN1CCN(CCN(CP(=O)(O)O)CP(=O)(O)O)CC1)CP(=O)(O)O (stereo not shown) [Example 8]
Percent Inhibition at 24 Hrs. [1]: 79%
Percent Inhibition at 48 Hrs. [1]: 77%
Percent Inhibition at 72 Hrs. [1]: 73%

O=P(O)(O)CN(CCN1CCN(CCN(CP(=O)(O)O)CP(=O)(O)O)CC1)CC(O)CS(=O)(=O)O (stereo not shown) [Example 6]
Percent Inhibition at 24 Hrs. [1]: 85%
Percent Inhibition at 48 Hrs. [1]: 73%
Percent Inhibition at 72 Hrs. [1]: 75%

O=P(O)(O)CN(CCN1CCN(CCN(CP(=O)(O)O)CP(=O)(O)O)CC1)CP(=O)(O)O [Example 3]
copper complexed per mole of ligand [2]: approximately three
Percent Inhibition at 24 Hrs. [1]: 99%
Percent Inhibition at 48 Hrs. [1]: 91%
Percent Inhibition at 72 Hrs. [1]: 89%
